Laboratory results: ChEMBL document CHEMBL5241119, “Hydroxypyrone derivatives in drug discovery: from chelation therapy to rational design of metalloenzyme inhibitors” (RSC Med Chem, 2022)

Legend:
[1] = biological target: T1, Macrophage metalloelastase (Homo sapiens, UniProt P39900); test: Inhibition of human MMP-12 relative to control; parameters: concentration or dose not given beside the values; conditions: concentration not given here
Target sequence in this assay (P39900 106-470 limits assumed): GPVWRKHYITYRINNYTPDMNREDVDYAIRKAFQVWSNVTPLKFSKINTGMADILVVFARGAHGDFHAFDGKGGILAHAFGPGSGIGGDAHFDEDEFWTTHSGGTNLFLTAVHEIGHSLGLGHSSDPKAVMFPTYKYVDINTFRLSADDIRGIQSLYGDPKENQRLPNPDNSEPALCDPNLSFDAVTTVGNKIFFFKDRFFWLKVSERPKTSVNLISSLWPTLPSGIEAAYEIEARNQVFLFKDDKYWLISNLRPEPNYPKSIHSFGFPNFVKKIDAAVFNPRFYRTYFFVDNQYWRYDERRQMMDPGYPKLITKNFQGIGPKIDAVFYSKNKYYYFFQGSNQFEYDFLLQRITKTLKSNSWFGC

[2] = Inhibition of NDM-1 (unknown origin) relative to control; parameters: concentration or dose not given beside the values; conditions: Bacteria; concentration not given here
[3] = biological target: Polymerase acidic protein (Influenza A virus (A/Puerto Rico/8/1934(H1N1))) (UniProt P03433); test: Inhibition of Influenza A virus N-terminal domain of PA endonuclease relative to control; conditions: concentration not given here
[4] = Inhibition of Pseudomonas aeruginosa Metallo-beta-lactamase VIM-2
[5] = Therapeutic index, ratio of CC50 for HEK293 cells to EC50 for Escherichia coli expressing VIM-2; assay type: toxicity; conditions: human, read-out: Ratio CC50/EC50
Pseudomonas aeruginosa = test: Inhibition of Pseudomonas aeruginosa Metallo-beta-lactamase VIM-2 at 50 uM relative to control
[6] = biological target: T2, Mushroom tyrosinase (Agaricus bisporus) (UniProt O42713+Q00024+C7FF04+C7FF05); test: Inhibition of mushroom monophenolase activity using L-DOPA as substrate preincubated with substrate followed by compound addition by Lineweaver-burk reciprocal plot analysis
Mushroom tyrosinase [7] = biological target: T3, Mushroom tyrosinase (Agaricus bisporus, UniProt O42713+Q00024+C7FF04+C7FF05); test: Inhibition of mushroom monophenolase
Mushroom tyrosinase [8] = biological target: T3, Mushroom tyrosinase; test: Inhibition of mushroom diphenolase
Mushroom tyrosinase [9] = biological target: T3, Mushroom tyrosinase; test: Inhibition of mushroom monophenolase activity by Lineweaver-burk reciprocal plot analysis
[10] = biological target: T2, Mushroom tyrosinase (Agaricus bisporus); test: Inhibition of mushroom Diphenolase activity using L-DOPA as substrate preincubated with substrate followed by compound addition by Lineweaver-burk reciprocal plot analysis
Mushroom tyrosinase [11] = biological target: T3, Mushroom tyrosinase; test: Inhibition of mushroom Diphenolase activity by Lineweaver-burk reciprocal plot analysis
Acetylcholinesterase = Acetylcholinesterase (Electrophorus electricus, UniProt O42275); test: Inhibition of Electrophorus electricus AChE
Sequence of Acetylcholinesterase (O42275 whole entry): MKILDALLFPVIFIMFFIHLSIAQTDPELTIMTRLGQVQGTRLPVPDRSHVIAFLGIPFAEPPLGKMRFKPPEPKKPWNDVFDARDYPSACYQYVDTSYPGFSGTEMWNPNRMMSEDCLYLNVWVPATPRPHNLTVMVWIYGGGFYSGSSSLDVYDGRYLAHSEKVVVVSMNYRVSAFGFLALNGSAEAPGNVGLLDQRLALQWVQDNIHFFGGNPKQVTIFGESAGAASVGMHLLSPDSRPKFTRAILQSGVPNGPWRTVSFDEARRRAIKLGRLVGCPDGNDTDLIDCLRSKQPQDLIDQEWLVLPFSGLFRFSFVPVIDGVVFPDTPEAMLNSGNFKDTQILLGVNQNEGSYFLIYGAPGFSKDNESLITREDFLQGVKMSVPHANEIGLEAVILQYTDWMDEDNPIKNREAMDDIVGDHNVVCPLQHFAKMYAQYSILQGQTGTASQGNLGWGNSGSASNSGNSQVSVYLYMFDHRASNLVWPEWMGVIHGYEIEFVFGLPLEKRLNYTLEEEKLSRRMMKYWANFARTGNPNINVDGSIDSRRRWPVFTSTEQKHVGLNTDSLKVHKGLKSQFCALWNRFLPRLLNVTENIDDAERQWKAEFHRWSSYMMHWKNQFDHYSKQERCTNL

[12] = biological target: Interstitial collagenase (Homo sapiens) (UniProt P03956); test: Inhibition of human MMP-1 at 100 uM relative to control
Stromelysin-1 [13] = biological target: T4, Stromelysin-1 (Homo sapiens, UniProt P08254); test: Inhibition of human MMP-3 at 100 uM relative to control
Target sequence in this assay (P08254 100-477 limits assumed): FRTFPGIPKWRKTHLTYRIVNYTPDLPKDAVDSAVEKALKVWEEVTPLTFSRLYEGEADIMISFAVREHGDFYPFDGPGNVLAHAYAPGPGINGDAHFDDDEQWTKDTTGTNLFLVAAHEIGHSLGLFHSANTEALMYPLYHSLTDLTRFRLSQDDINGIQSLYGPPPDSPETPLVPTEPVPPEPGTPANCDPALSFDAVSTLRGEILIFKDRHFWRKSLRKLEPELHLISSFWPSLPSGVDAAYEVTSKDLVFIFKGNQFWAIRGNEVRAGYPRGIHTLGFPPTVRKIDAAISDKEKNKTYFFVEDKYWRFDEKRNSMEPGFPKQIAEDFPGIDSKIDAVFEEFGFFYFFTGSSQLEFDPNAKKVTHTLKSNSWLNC

Lethal factor = Lethal factor (Bacillus anthracis, UniProt P15917); test: Inhibition of anthrax lethal factor
Sequence of Lethal factor (P15917 whole entry): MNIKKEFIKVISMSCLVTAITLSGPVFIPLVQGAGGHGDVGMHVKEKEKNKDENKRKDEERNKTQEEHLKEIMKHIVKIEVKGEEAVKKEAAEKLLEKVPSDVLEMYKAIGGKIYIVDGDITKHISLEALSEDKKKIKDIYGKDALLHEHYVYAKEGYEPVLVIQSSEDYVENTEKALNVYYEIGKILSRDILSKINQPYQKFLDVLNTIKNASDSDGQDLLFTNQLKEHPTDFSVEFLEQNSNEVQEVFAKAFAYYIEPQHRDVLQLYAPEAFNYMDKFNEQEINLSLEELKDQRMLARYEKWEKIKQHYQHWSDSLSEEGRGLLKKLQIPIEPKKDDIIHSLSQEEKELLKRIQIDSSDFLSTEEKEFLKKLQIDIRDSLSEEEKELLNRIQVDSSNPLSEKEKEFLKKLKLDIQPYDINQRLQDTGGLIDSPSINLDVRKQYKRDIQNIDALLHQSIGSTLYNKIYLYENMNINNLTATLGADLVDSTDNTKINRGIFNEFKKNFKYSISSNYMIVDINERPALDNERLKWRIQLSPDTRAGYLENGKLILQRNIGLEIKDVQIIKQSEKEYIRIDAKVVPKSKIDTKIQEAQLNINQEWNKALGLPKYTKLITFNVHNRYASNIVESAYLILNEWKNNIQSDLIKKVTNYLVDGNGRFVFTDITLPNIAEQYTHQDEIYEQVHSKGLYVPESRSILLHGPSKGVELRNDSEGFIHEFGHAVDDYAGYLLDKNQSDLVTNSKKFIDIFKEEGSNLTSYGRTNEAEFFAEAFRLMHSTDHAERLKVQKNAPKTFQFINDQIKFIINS

Stromelysin-1 [14] = biological target: T4, Stromelysin-1; test: Inhibition of MMP-3 (unknown origin) by Colorimetric assay
Target sequence in this assay (P08254 whole entry): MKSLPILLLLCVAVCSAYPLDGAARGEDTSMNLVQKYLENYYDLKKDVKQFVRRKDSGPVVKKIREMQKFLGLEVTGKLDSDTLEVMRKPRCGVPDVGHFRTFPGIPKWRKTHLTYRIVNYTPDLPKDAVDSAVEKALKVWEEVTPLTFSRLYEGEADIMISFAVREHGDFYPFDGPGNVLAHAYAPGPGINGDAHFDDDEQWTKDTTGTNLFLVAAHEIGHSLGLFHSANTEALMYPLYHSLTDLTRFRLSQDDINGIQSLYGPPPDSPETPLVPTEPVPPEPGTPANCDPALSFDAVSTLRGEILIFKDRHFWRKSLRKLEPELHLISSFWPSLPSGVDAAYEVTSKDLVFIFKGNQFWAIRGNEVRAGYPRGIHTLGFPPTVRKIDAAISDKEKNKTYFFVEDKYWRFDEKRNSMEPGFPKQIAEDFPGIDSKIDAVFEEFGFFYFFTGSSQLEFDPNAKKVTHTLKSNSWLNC

Stromelysin-1 [15] = biological target: T4, Stromelysin-1; test: Inhibition of MMP-3 (unknown origin) by fluorescence based assay
Target sequence in this assay (P08254 whole entry): as above

Glycine max = test: Inhibition of soybean 5-LOX relative to control
[16] = biological target: T1, Macrophage metalloelastase; test: Inhibition of human MMP-12
Target sequence in this assay (P39900 whole entry): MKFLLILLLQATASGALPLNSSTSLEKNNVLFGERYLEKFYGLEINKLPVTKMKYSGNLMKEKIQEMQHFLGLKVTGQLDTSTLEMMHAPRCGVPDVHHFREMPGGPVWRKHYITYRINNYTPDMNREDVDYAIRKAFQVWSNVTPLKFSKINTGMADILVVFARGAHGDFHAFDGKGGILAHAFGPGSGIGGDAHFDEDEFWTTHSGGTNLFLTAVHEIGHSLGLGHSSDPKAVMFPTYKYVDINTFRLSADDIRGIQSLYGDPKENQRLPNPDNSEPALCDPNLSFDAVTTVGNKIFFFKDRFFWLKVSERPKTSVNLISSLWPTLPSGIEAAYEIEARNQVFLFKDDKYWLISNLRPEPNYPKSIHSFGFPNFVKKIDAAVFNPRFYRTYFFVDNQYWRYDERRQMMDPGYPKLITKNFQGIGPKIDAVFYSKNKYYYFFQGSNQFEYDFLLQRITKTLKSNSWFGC

Neutrophil collagenase [17] = biological target: T5, Neutrophil collagenase (Homo sapiens, UniProt P22894); test: Inhibition of human MMP-8
Target sequence in this assay (P22894 whole entry): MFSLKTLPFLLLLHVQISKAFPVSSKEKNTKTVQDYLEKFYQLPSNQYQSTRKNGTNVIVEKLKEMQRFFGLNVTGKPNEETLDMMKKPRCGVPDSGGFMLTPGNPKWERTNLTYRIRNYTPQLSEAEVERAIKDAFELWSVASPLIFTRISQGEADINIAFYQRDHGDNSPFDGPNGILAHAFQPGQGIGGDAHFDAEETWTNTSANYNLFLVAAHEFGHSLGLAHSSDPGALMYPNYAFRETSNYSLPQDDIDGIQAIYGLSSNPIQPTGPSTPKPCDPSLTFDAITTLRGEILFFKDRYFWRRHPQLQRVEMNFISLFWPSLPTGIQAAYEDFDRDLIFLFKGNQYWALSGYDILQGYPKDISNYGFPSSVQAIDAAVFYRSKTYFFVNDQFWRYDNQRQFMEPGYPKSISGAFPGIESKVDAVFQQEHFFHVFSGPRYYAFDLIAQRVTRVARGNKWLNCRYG

Matrilysin = biological target: T6, Matrilysin (Homo sapiens, UniProt P09237); test: Inhibition of human MMP-7
T6 sequence (P09237 whole entry): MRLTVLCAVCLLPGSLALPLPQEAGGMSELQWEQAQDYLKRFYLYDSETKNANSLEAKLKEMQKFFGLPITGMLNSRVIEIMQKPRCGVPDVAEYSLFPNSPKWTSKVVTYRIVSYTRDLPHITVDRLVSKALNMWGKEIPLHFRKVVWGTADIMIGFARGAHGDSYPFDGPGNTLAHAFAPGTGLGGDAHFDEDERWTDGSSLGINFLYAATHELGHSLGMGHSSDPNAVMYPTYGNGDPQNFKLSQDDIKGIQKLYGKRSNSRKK

[18] = biological target: T7, Matrix metalloproteinase-9 (Homo sapiens, UniProt P14780); test: Inhibition of human MMP-9
T7 sequence (P14780 whole entry): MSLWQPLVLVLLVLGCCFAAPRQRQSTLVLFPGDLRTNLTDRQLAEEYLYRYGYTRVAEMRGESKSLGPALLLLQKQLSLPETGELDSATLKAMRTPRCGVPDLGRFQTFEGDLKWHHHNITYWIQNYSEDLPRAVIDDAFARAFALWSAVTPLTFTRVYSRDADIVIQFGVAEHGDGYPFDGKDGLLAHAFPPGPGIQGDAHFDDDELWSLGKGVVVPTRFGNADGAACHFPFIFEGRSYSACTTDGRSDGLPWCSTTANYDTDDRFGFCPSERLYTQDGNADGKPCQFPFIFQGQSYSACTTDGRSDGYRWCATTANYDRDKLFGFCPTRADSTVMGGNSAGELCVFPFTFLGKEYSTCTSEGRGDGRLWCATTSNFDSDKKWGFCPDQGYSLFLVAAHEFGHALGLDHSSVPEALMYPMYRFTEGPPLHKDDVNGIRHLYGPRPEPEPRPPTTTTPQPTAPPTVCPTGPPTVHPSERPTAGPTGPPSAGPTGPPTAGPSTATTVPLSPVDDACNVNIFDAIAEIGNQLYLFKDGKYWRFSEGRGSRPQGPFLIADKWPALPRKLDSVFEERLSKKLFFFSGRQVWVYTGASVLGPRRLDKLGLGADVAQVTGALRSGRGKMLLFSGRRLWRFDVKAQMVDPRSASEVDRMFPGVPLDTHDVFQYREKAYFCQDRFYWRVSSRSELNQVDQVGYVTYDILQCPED

Collagenase 3 = Collagenase 3 (Homo sapiens, UniProt P45452); test: Inhibition of human MMP-13
Interstitial collagenase = biological target: T8, Interstitial collagenase (Homo sapiens, UniProt P03956); test: Inhibition of human MMP-1
T8 sequence (P03956 whole entry): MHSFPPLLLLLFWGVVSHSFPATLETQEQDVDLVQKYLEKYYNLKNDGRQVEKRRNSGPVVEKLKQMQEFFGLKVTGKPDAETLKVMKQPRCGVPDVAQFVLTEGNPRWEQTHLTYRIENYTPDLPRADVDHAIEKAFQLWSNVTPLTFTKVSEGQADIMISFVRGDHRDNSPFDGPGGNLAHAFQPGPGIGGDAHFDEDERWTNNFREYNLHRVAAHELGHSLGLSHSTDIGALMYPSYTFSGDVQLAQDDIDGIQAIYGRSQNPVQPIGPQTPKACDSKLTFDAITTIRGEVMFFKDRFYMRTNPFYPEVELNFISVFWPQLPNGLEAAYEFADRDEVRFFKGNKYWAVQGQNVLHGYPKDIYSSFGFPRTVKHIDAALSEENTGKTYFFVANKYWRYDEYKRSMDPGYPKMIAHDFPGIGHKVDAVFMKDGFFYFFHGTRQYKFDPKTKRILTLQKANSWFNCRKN

[19] = biological target: Amine oxidase [flavin-containing] B (Homo sapiens, UniProt P27338); test: Inhibition of human MAO-B
Sequence of Amine oxidase [flavin-containing] B (P27338 whole entry, the tested form may be a part): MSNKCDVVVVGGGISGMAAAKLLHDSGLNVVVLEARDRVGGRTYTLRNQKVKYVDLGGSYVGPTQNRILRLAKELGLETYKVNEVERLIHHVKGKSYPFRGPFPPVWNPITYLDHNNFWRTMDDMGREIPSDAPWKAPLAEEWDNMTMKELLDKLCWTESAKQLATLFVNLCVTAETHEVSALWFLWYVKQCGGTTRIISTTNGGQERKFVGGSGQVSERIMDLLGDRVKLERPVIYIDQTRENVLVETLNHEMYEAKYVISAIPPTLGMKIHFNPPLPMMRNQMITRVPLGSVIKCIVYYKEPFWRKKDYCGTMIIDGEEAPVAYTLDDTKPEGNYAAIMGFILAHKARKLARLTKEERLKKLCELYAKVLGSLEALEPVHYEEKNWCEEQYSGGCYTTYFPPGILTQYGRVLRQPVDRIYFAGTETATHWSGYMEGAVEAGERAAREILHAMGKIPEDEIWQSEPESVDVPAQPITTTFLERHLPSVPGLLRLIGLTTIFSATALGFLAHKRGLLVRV

Rattus norvegicus [20] = organism: Rattus norvegicus; test: Cardioprotective activity in myocardial ischemia/reperfusion induced Sprague-Dawley rat injury model assessed as recovery of contractile function; assay type: functional
Rattus norvegicus [21] = organism: Rattus norvegicus; test: Cardioprotective activity in myocardial ischemia/reperfusion induced Sprague-Dawley rat injury model assessed as improved RPP; assay type: functional
Rattus norvegicus [22] = organism: Rattus norvegicus; test: Cardioprotective activity in myocardial ischemia/reperfusion induced Sprague-Dawley rat injury model assessed as reduction in muscle damage; assay type: functional; parameters: scale not given: the % may be the effect or the level left
Rattus norvegicus [23] = organism: Rattus norvegicus; test: Cardioprotective activity in myocardial ischemia/reperfusion induced Sprague-Dawley rat injury model assessed as improved coronary flow rate; assay type: functional
Rattus norvegicus [24] = organism: Rattus norvegicus; test: Cardioprotective activity in myocardial ischemia/reperfusion induced Sprague-Dawley rat injury model assessed as reduction in fibrillar collagen damage; assay type: functional; parameters: scale not given: the % may be the effect or the level left
[25] = biological target: T7, Matrix metalloproteinase-9; test: Inhibition of human MMP-9 at 100 uM relative to control
Neutrophil collagenase [26] = biological target: T5, Neutrophil collagenase; test: Inhibition of beta-glucosidase activated MMP-8 (unknown origin) relative to control; conditions: concentration not given here
[27] = biological target: T7, Matrix metalloproteinase-9; test: Inhibition of beta-glucosidase activated MMP-9 (unknown origin) relative to control; conditions: concentration not given here
[28] = biological target: Amyloid-beta precursor protein (Homo sapiens) (UniProt P05067); test: Inhibition of amyloid beta (1 to 42 ) (unknown origin) self aggregation at 100 uM relative to control
SH-SY5Y = test: Protection against amyloid beta (1 to 42) induced toxicity in human SH-SY5Y cells assessed as increase in cell viability; assay type: functional
[29] = biological target: T7, Matrix metalloproteinase-9; test: Inhibition of MMP-9 (unknown origin)
Stromelysin-1 [30] = biological target: T4, Stromelysin-1; test: Inhibition of MMP-3 (unknown origin)
Target sequence in this assay (P08254 whole entry): as the sequence (P08254 whole entry) above

[31] = biological target: 72 kDa type IV collagenase (Homo sapiens, UniProt P08253); test: Inhibition of MMP-2 (unknown origin)
Stromelysin-1 [32] = biological target: T4, Stromelysin-1; test: Inhibition of human MMP-3
Target sequence in this assay (P08254 whole entry): as above

[33] = Antioxidant activity assessed as DPPH radical scavenging activity; assay type: functional

Oc1coccc1=S
inhibition [1]: 93%
inhibition [2]: 90%
inhibition [3]: > 90%

Oc1coc2ccccc2c1=S
inhibition [1]: 93%
inhibition [3]: > 90%

O=C(O)c1cccc(=S)n1O
Ki [4]: 0.013 µM
selectivity ratio [5]: 8800
inhibition (Pseudomonas aeruginosa): 98%

[O-][n+]1ccccc1S
IC50 [4]: 0.908 µM
Ki [4]: 0.217 µM

CCCCCCO/N=C/c1cc(=O)c(O)c[nH]1
Kis [6]: 18.1 µM
IC50 (Mushroom tyrosinase [7]): 2.04 µM
IC50 (Mushroom tyrosinase [8]): 13.89 µM
Ki (Mushroom tyrosinase [9]): 24.84 µM
Kis [10]: 18.1 µM
Ki (Mushroom tyrosinase [11]): 24.84 µM

Cc1c(OCc2ccccc2)c(=O)ccn1CCCC(=O)Nc1ccc(Cc2nc3ccccc3s2)cc1
IC50 (Acetylcholinesterase): 14.7 µM

Cc1occ(O)c(=O)c1C(=O)NCc1ccc(-c2ccccc2)cc1
inhibition [12]: 21%
inhibition (Stromelysin-1 [13]): 21%

CS(=O)(=O)Cc1cccc(=S)n1O
inhibition [1]: 93%
inhibition [2]: 90%
inhibition [3]: > 90%

Cc1c(OCc2ccccc2)c(=O)ccn1-c1ccc(CC(=O)Nc2ccc(Cc3nc4ccccc4s3)cc2)cc1
IC50 (Acetylcholinesterase): 14.7 µM

Cn1cc(O)c(=O)cc1/C=C/C(=O)c1ccc(F)cc1
IC50 (Mushroom tyrosinase [7]): 3.07 µM
IC50 (Mushroom tyrosinase [8]): 17.05 µM

Cc1cc(=S)c(O)c(C(=O)NCc2ccc(-c3ccccc3)cc2)o1
IC50 (Lethal factor): 13.9 µM

On1cc2ccccc2cc1=S
inhibition [3]: > 90%

[O-][n+]1ccccc1S [PYRITHIONE]
IC50 (Stromelysin-1 [14]): 20 µM
IC50 (Stromelysin-1 [15]): 35 µM

On1ccc2ccccc2c1=S
inhibition [1]: 93%
inhibition [2]: 90%

CCCNC(=O)CCC(=O)NCc1c(O)c(=O)cc(C)n1C
inhibition (Glycine max): 10%

Cc1cc(=O)c(O)c(C(=O)NCc2ccc(-c3ccccc3)cc2)o1
IC50 [16]: 0.018 µM
IC50 (Neutrophil collagenase [17]): 0.018 µM
IC50 (Matrilysin): 25 µM
IC50 [18]: 25 µM
IC50 (Collagenase 3): 4 µM
IC50 (Interstitial collagenase): 25 µM

Cc1cc(=O)c(O)c(CO)n1CCn1cc(COc2ccc3ccc(=O)oc3c2)nn1
IC50 [19]: 0.68 µM

On1ccc2[nH]cnc2c1=S
inhibition [2]: 90%

S=c1cc[nH]c2[nH]cnc12
inhibition [2]: 90%

COc1ccc(C(=O)/C=C/c2cc(=O)c(O)c[nH]2)cc1OC
IC50 (Mushroom tyrosinase [7]): 2.75 µM
IC50 (Mushroom tyrosinase [8]): 19.3 µM

O=C(NCc1ccc(-c2ccccc2)cc1)c1cccc(=O)n1O
IC50 (Neutrophil collagenase [17]): 0.018 µM
IC50 (Matrilysin): 25 µM
IC50 [18]: 25 µM
Activity (Rattus norvegicus [20]): 80%
IC50 (Collagenase 3): 4 µM
Activity (Rattus norvegicus [21]): 23%
IC50 (Interstitial collagenase): 25 µM
Activity (Rattus norvegicus [22]): 25%
Activity (Rattus norvegicus [23]): 22%
Activity (Rattus norvegicus [24]): 60%

Cc1cc(=O)c(O)c(CO)n1CCCn1cc(COc2cc3ccccc3oc2=O)nn1
IC50 [19]: 0.86 µM

Cc1c(O)c(=S)ccn1C
inhibition [2]: 90%

Cc1occ(O)c(=S)c1C(=O)NCc1ccc(-c2ccccc2)cc1
inhibition [25]: 54%

Cc1occc(=O)c1O[C@@H]1O[C@H](CO)[C@@H](O)[C@H](O)[C@H]1O
inhibition (Neutrophil collagenase [26]): 33%
inhibition [27]: 73%

CCCCCCCCn1cc(O)c(=O)cc1COC(=O)[C@H](N)Cc1ccccc1
IC50 (Mushroom tyrosinase [7]): 12.6 µM
IC50 (Mushroom tyrosinase [8]): 4.01 µM

Cc1c(OCc2ccccc2)c(=O)ccn1-c1ccc(CC(=O)Nc2ccc(-c3nc4ccccc4s3)cc2)cc1
IC50 (Acetylcholinesterase): 14.7 µM
inhibition [28]: 68%
Activity (SH-SY5Y): 100%

Cn1ccc(=O)c(O)c1C(=O)NCc1ccc(-c2ccccc2)cc1
IC50 (Neutrophil collagenase [17]): 1.2 µM
IC50 (Matrilysin): 25 µM
IC50 [18]: 25 µM
IC50 (Collagenase 3): 4 µM
IC50 (Interstitial collagenase): 25 µM

Cc1c(O)c(=O)ccn1C
inhibition ([6]; concentration not given here): 2%
inhibition (Glycine max): 70%

Cc1c(O)c(=S)ccn1Cc1ccc(-c2ccccc2)cc1
IC50 [29]: 2 µM
IC50 (Stromelysin-1 [30]): 4 µM
IC50 (Lethal factor): 3 µM
IC50 [31]: 1 µM

O=C(NCc1ccc(-c2ccccc2)cc1)c1occc(=O)c1O
IC50 [16]: 0.018 µM
IC50 (Neutrophil collagenase [17]): 0.018 µM
IC50 (Matrilysin): 25 µM
IC50 [18]: 25 µM
IC50 (Stromelysin-1 [32]): 0.077 µM
IC50 (Collagenase 3): 4 µM
IC50 (Interstitial collagenase): 25 µM

Cc1cc(=O)c(O)c(C(=O)NCc2ccc(-c3ccccc3)cc2)n1C
IC50 (Neutrophil collagenase [17]): 1.2 µM
IC50 (Matrilysin): 25 µM
IC50 [18]: 25 µM
IC50 (Collagenase 3): 4 µM
IC50 (Interstitial collagenase): 25 µM

Cc1c(O)c(=O)ccn1CCCC(=O)N1CCCC1c1nc2ccccc2s1 (stereo not given)
EC50 [33]: 247 µM

CCCCCCCCO/N=C/c1cc(=O)c(O)c[nH]1
Kis [6]: 21.3 µM
IC50 (Mushroom tyrosinase [7]): 1.6 µM
IC50 (Mushroom tyrosinase [8]): 7.99 µM
Ki (Mushroom tyrosinase [9]): 32.54 µM
Kis [10]: 21.3 µM
Ki (Mushroom tyrosinase [11]): 32.54 µM

CCCCCCCCn1ccc(=O)c(O)c1C
inhibition (Glycine max): 40%

O=C(O)c1c[nH]c2ccccc2c1=S
inhibition [1]: 93%
